Legend:
[1] = biological target: Muscarinic acetylcholine receptor M3 (Homo sapiens, UniProt P20309); experiment: Muscarinic Receptor Binding Assay: The study of binding to human muscarinic M1, M2, M3, M4 and M5 receptors was performed using commercial membranes (Perkin Elmer) prepared from CHO-K1 cells. Radioligand binding experiments were conducted in 96 polypropylene well plates in a total volume of 200 μl. All reagents were dissolved in assay binding buffer (PBS with calcium and magnesium, SIGMA), except compounds that were dissolved in DMSO 100%. Non-specific binding (NSB) was measured in the presence of 1 μM atropine. [3H]-NMS was used as the radioligand at a concentration of 1 nM for M2, M3 and M5 and 0.3 nM for M1 and M4. [3H]-NMS and antagonists were incubated with membranes that express human muscarinic receptors M1, M2, M3, M4 and M5 at concentrations of 8.1, 10, 4.9, 4.5 and 4.9 μg/well, respectively. After an incubation period of two hours with gentle shaking, 150 μl of the reaction mix were transferred to 96 GF/C filter plates (Millipore), previously treated with wash buffer (Tris 50 mM; NaCl 100 mM; pH: 7.4), containing 0.05% PEI (Sigma) during one hour. Bound and free [3H]-NMS were separated by rapid vacuum filtration in a manifold from Millipore and washed four times with ice cold wash buffer. After drying 30 min, 30 μl of OPTIPHASE Supermix were added to each well and radioactivity quantified using a Microbeta microplate scintillation counter.; assay type: cell-based
[2] = biological target: Beta-2 adrenergic receptor (Homo sapiens, UniProt P07550); experiment: Adrenergic Receptor Binding Assay: The study of binding to human adrenergic beta1 and beta2 receptors was performed using commercial membranes prepared from Sf9 cells where they are overexpressed (Perkin Elmer). The membrane suspensions (16 μg/well for beta1 and 5 μg/well for beta2) in assay buffer (75 mM Tris/HCl with 12.5 mM MgCl2 and 2 mM EDTA pH=7.4) were incubated with 0.14 or 0.6 nM of 3H-CGP12177 (Amersham) for beta 1 and beta 2 receptors respectively in a final volume of 250 μl, in GFC Multiscreen 96 well plates (Millipore) previously treated with assay buffer containing 0.3% PEI (Sigma). Non specific binding was measured in the presence of 1 μM propanolol. Incubation was maintained for 60 minutes at room temperature and with gentle shaking. The binding reactions were terminated by filtration and washing with 2.5 volumes of Tris/HCl 50 mM pH=7.4.; assay type: cell membranes
Beta-2 adrenergic receptor, sequence (P07550 whole entry): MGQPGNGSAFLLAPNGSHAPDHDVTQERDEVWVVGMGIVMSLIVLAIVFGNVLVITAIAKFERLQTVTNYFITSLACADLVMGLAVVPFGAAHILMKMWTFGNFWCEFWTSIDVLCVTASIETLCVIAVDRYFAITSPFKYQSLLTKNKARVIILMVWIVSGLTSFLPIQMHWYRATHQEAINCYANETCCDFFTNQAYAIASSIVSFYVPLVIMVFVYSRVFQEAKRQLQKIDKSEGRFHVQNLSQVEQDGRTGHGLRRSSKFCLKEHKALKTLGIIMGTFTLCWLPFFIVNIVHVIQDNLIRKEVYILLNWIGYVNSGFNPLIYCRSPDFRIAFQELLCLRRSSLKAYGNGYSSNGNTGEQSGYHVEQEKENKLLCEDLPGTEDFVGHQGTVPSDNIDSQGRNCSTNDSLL

Muscarinic acetylcholine receptor M3, sequence (P20309 whole entry): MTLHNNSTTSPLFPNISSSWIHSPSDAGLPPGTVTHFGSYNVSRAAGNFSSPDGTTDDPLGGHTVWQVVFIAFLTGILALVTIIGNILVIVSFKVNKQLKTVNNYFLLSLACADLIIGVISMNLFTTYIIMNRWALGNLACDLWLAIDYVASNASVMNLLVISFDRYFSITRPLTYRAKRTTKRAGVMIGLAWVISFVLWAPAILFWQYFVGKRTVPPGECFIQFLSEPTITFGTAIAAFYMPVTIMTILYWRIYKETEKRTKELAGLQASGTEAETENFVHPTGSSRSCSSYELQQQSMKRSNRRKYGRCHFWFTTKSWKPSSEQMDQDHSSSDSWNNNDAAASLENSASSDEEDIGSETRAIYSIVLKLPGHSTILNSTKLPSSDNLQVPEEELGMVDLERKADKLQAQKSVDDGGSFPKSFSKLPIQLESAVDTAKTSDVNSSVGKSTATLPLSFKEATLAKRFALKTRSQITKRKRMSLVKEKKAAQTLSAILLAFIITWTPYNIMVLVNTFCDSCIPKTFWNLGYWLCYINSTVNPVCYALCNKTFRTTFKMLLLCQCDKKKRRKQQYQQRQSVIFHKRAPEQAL

SMILES	IC50 [1]	IC50 [2]
CN(CCOc1ccc(CCNC[C@H](O)c2ccc(O)c3[nH]c(=O)ccc23)cc1)C1CCC(OC(=O)C(O)(c2cccs2)c2cccs2)CC1 (stereo partly specified)	1.3 nM	36 nM
CN(CCC(=O)Nc1ccc(CNC[C@H](O)c2ccc(O)c3[nH]c(=O)ccc23)cc1Cl)[C@H]1CC[C@H](OC(=O)C(O)(c2cccs2)c2cccs2)CC1	2.2 nM	6.7 nM
COc1cc(NC(=O)CCN(C)[C@H]2CC[C@H](OC(=O)C(O)(c3cccs3)c3cccs3)CC2)c(Cl)cc1CNC[C@H](O)c1ccc(O)c2[nH]c(=O)ccc12	1.1 nM	8.5 nM
